Type in all cases: cell-based
Experiment [1] has as its system LPS-mediated MIP-1α production in THP-1 cells. Put plainly: LPS-mediated MIP-1α production in THP-1 cells. Conditions: Homo sapiens; 12.5 μM test compound; THP-1 cells, LPS 1 μg/ml; NI = no inhibition. As to the method:
(§1) THIAA derivatives synthesized in Examples 1-19 were dissolved in dimethyl sufoxide (DMSO) and stored at −20° C. LPS was purchased from Sigma Chemicals (St. Louis, Miss.).
(§2) The effect of the THIAA derivatives on LPS-mediated MMP-9, IL-1β, ([…], MCP-1, RANTES, and MIP-1α was evaluated in THP-1 cells. Stimulation of THP-1 cells with LPS (1 μg/ml) activated the production of MMP-9, IL-1β, MCP-1, RANTES, and MIP-1α.
(§3) Results are summarized in Table 2, with data represented as % inhibition of inflammatory mediator production.

Experiment [2] deals with LPS-mediated inflammatory mediators in RAW264.7 and THP-1 cells. Put plainly: Mean inhibition across all six inflammatory mediators. To be noted: 12.5 μM test compound. The protocol:
(§4) The effect of the THIAA derivatives on LPS-mediated prostaglandin E2 (PGE2) and nitric oxide (NO) production was evaluated in a RAW264.7 murine macrophage model. The RAW 264.7 cell line was purchased from ATCC (Manassas, Va.) and maintained according to their instructions. Cells were grown and subcultured in 96-well plates at a density of 8×10^4 cells per well, and reached 80-90% confluence the next day. THIAA derivatives were added to the cells in serum-free medium at a final concentration of 0.1% DMSO. Following one hour of incubation with the THIAA derivatives, LPS (1 μg/ml) or DMEM medium alone was added to the cells and incubation was continued for 6 hours. Stimulation of RAW 264.7 cells with LPS (1 μg/ml) for 6 hours activated the production of PGE2 and NO. Supernatant media was collected for measurement of PGE2 levels. For NO, incubations were continued overnight. Supernatant media was collected for measurement of NO levels after 16 hours of stimulation. PGE2 levels were measured using assay kits from Assay Designs, (Ann Arbor, Mich.) and NO levels were measured using assay kits from Cayman Chemicals (Ann Harbor, Mich.).
as §2, §3
Mean inhibition across all six inflammatory mediators was calculated for each of the THIAA derivatives.

Experiment [3] deals with LPS-mediated nitric oxide (NO) production in RAW264.7 cells. The experiment in a line: LPS-mediated NO production in RAW264.7 murine macrophage model. To be noted: Mus musculus, 12.5 μM test compound, LPS 1 μg/ml, NI = no inhibition. As to the method: as §1, §4, §3
Experiment [4] relates to LPS-mediated MCP-1 production in THP-1 cells. The experiment in a line: LPS-mediated MCP-1 production in THP-1 cells. Conditions: Homo sapiens; 12.5 μM test compound; THP-1 cells, LPS 1 μg/ml; NI = no inhibition. The protocol:
as §1, §2, §3

Experiment [5] deals with LPS-mediated IL-6 production in THP-1 cells. The experiment in a line: LPS-mediated IL-6 production in THP-1 cells. To be noted: Homo sapiens; 12.5 μM test compound; THP-1 cells, LPS 1 μg/ml; NI = no inhibition. As to the method: as §1, §2, §3
Experiment [6] deals with LPS-mediated RANTES production in THP-1 cells. Put plainly: LPS-mediated RANTES production in THP-1 cells. To be noted: Homo sapiens; 12.5 μM test compound; THP-1 cells, LPS 1 μg/ml; NI = no inhibition. As to the method: as §1, §2, §3
The next experiment deals with T1, PPARα (Homo sapiens, UniProt Q07869).
T1 sequence (Q07869 1-468): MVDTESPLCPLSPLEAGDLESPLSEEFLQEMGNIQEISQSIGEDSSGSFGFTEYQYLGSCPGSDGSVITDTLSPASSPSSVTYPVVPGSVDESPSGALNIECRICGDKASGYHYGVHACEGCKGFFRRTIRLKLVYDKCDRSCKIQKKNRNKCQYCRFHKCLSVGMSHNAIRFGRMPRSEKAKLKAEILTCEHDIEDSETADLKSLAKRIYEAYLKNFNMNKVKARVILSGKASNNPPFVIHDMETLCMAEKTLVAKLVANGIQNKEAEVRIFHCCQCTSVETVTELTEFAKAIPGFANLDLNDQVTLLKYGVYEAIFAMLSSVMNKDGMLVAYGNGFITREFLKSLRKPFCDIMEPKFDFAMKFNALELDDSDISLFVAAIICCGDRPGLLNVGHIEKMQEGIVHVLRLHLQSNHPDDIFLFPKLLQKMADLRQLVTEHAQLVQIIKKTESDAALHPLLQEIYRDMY
The experiment in a line: PPARα reporter assay (INDIGO Biosciences). To be noted: for Emax at 12.5 µM: read-out: PPARα % GW590735 (20.6 nM). The protocol:
(§5) The functional effect of THIAA derivatives on PPARα and PPARγ activity was evaluated using a PPAR reporter assay (INDIGO Biosciences, Pa.). This assay utilizes non-human mammalian cells engineered to provide constitutive high level expression of PPARα, or PPARγ and containing a luciferase report gene specific to the appropriate PPAR. Following activation by agonist binding, PPAR induces expression of the luciferase reporter gene. Luciferase activity therefore provides a surrogate for measuring PPAR activity in agonist-treated cells.
(§6) 0.1% DMSO was used as a solvent control for each assay. Plates were incubated for 20 hours in a humidified incubator at 37° C. and 5% CO2. After incubation, the cell medium was discarded and the cells were treated with 100 μL of luciferase detection reagent for 15 minutes. Plates were analyzed using a luminometer (Victor2, Perkin Elmer). Average relative light unit (RLU) and standard deviation were measured.
Background: A reporter such as luciferase makes a cellular process visible.

The next experiment deals with T2, PPARγ (Homo sapiens, UniProt P37231).
T2 sequence (P37231 1-505): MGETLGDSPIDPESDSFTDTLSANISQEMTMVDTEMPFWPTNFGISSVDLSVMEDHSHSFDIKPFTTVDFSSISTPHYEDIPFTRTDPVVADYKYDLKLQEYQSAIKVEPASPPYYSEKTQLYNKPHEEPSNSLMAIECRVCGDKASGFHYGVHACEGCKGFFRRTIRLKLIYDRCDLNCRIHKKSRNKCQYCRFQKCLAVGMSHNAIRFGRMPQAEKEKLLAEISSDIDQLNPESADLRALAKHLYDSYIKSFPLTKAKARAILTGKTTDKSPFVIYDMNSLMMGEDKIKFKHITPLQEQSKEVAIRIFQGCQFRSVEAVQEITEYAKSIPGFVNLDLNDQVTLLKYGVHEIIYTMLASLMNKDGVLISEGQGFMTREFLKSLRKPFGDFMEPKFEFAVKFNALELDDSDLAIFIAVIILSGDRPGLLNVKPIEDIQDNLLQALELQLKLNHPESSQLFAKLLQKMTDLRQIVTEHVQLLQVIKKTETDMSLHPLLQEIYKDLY
Put plainly: PPARγ reporter assay (INDIGO Biosciences). Conditions: 20 h. As to the method:
as §5, §6

Experiment [7] relates to LPS-mediated prostaglandin E2 (PGE2) production in RAW264.7 cells. Put plainly: LPS-mediated PGE2 production in RAW264.7 murine macrophage model. To be noted: 12.5 μM test compound, LPS 1 μg/ml, NI = no inhibition; for inhibition at 12.5 µM: Mus musculus, RAW264.7, 6 h. As to the method:
as §1, §4, §3

The mark [8] stands for this setting: 12.5 μM test compound, luciferase reporter cells, 20 hours, activity compared to GW590735.
Setting [9] is: read-out: PPARγ % rosiglitazone (500 nM), 12.5 μM test compound, luciferase reporter cells, 20 hours, activity compared to rosiglitazone.

Read-outs that look alike come from different tables or passages of the source.

One may read the inhibition as how much of the control response was suppressed. Low values mean a response near the control, high ones a response far below the control. Consider `CC(C)CCC(=O)[C@@]1(O)C([O-])=C(C(=O)CC(C)C)C(=O)[C@@H]1CCC(C)C.[K+]` (stereo in doubt) [KDT501, Potassium salt of (+)-KDT500], for which the inhibition at 12.5 µM in experiment [1] amounted to 62%; in experiment [2] it was 48%; in experiment [3] (16 hours) it was 23%; in experiment [4], 77%; in experiment [5] it was 49%; in experiment [6], 77%. Besides, the results for the Emax at 12.5 µM on PPARα (20 h) and at PPARγ (read-out: PPARγ % rosiglitazone (500 nM)) were less than 5% and 31%, respectively. In experiment [7] (6 hours), the “% inhibition of PGE2 production” value is on record as “No inhibition (NI)”.

On to `CC(C)CCC(O)[C@@]1(O)C(O)=C(C(=O)CC(C)C)C(=O)[C@@H]1CCC(C)C` (stereo partly drawn) [KDT0039, (4R,5R)-3,4-dihydroxy-4-(1-hydroxy-4-methylpentyl)-2-(3-methylbutanoyl)-5-(3-methylbutyl)cyclopent-2-en-1-one], for which the inhibition at 12.5 µM in experiment [1] is 23%; in experiment [2], 26%; in experiment [3] (RAW264.7, 16 h), less than 20%; in experiment [4], 50%; in experiment [5] it was 22%; in [6], 58%. The inhibition at 12.5 µM in [7] was less than 0%. The Emax at 12.5 µM on PPARα (setting [8]) and at PPARγ (setting [9]) was less than 5% throughout.

As for `CO/N=C(/CC(C)C)C1=C(O)[C@](O)(C(O)CCC(C)C)[C@@H](CCC(C)C)C1=O` (stereo partly drawn) [KDT0005, (4R,5R)-3,4-dihydroxy-4-(1-hydroxy-4-methylpentyl)-2-(N-methoxy-3-methylbutanimidoyl)-5-(3-methylbutyl)cyclopent-2-en-1-one], the inhibition at 12.5 µM in [1] is 20%; in [2] it was less than 20%; in [3] (RAW264.7, 16 h), less than 0%; in [4], 38%; in experiment [5] it was less than 20%; in [6], 25%. In [7], this molecule had an inhibition at 12.5 µM of less than 0%. The Emax at 12.5 µM on PPARα (setting [8]) and at PPARγ (setting [9]) was less than 5% throughout.

Turning to `CC(C)CCC(=O)[C@@]1(O)C(=O)/C(=C(\CC(C)C)NCc2ccccc2)C(=O)[C@@H]1CCC(C)C` [KDT0024, (4R,5R)-2-[1-(benzylamino)-3-methylbutylidene]-4-hydroxy-5-(3-methylbutyl)-4-(4-methylpentanoyl)cyclopentane-1,3-dione], the inhibition at 12.5 µM in experiment [1] is less than 0%; in experiment [2], 44%; in [3] (RAW264.7, 16 h) it was 27%; in experiment [4], 80%; in experiment [5], 53%; in [6], 20%. This molecule gave an inhibition at 12.5 µM in experiment [7] of 81%. Further, the Emax at 12.5 µM at PPARα (setting [8]) and on PPARγ (setting [9]) was less than 5% in each case.

For the molecule `CC(C)=CC[C@H]1C(=O)C(C(=O)CC(C)C)=C(O)[C@]1(O)C(=O)/C=C/C(C)(C)O` [KDT0040, (4S,5R)-3,4-dihydroxy-4-[(2E)-4-hydroxy-4-methylpent-2-enoyl]-2-(3-methylbutanoyl)-5-(3-methylbut-2-en-1-yl)cyclopent-2-en-1-one], the inhibition at 12.5 µM was less than 0% in experiment [1]; 25% in experiment [2]; 26% in experiment [3] (RAW264.7, 16 h); 53% in [4]; less than 0% in experiment [5]; 18% in experiment [6]. This molecule showed an inhibition at 12.5 µM in experiment [7] of 54%. Moreover, the Emax at 12.5 µM at PPARα (setting [8]) and at PPARγ (setting [9]) was less than 5% each time.

Take `C#CCCOC(=O)O[C@]1(C(=O)CCC(C)C)C(O)=C(C(=O)CC(C)C)C(=O)[C@@H]1CCC(C)C` [KDT0035, but-3-yn-1-yl (1S,5R)-2-hydroxy-3-(3-methylbutanoyl)-5-(3-methylbutyl)-1-(4-methylpentanoyl)-4-oxocyclopent-2-en-1-yl carbonate]: the inhibition at 12.5 µM was 82% in experiment [1]; 77% in [2]; 44% in [3] (RAW264.7, 16 h); 95% in experiment [4]; 65% in experiment [5]; 84% in experiment [6]. For the same molecule, in experiment [7], the inhibition at 12.5 µM was determined as 89%. Also, on PPARα (setting [8]), the “PPARα % GW590735 (20.6 nM)” value is “dual PPARα and PPARγ agonists”. Moreover, the Emax at 12.5 µM on PPARα (setting [8]) came out at 40%; at PPARγ (setting [9]), 43%.

On to `CC(C)CCC(=O)[C@@]1(O)C(=O)/C(=C(\CC(C)C)NCCO)C(=O)[C@@H]1CCC(C)C` [KDT0017, (4R,5R)-4-hydroxy-2-{1[(2-hydroxyethyl)amino]-3-methylbutylidene}-5-(3-methylbutyl)-4-(4-methylpentanoyl)cyclopentane-1,3-dione], for which the inhibition at 12.5 µM is less than 0% in [1]; 23% in experiment [2]; less than 20% in [3] (RAW264.7, 16 h); 80% in [4]; 50% in experiment [5]; less than 0% in experiment [6]. In [7], this molecule registered an inhibition at 12.5 µM of less than 0%. Besides, the Emax at 12.5 µM at PPARα (setting [8]) and on PPARγ (setting [9]) was less than 5% in each case.
